Test system: spinach variety (Bloomsdale Long-Standing)
Experiment: Zinc uptake in spinach plants from application of fertilizer containing animal nutrient core packet (8-kg pot test)
Assay type: in vivo
Settings: Soil applied Zn nutrient core product
Procedure: In this example tests were performed to quantify the incorporation of zinc in a common spinach variety (Bloomsdale Long-Standing) employing compositions of the present invention. The tests quantified the increase in leaf zinc content due to application of compositions of the present invention containing zinc. The impact of the present compositions on spinach biomass increase was not the primary objective. In addition to applications of the present compositions to soil, for comparative purposes, foliar application of zinc solutions were applied to spinach leaves. Direct foliar applications provide an indication of potentially maximum amounts of zinc uptake into the leaves. 1. Soil • 8 kg Greenville loam (fine, kaolinitic, thermic Rhodie Kandiudults), pH=6.2, organic matter=1.4%, CEC=5.2 cmol kg^−1. The soil has been depleted of nutrients by previous cropping of tomatoes and cabbage. 2. Experimental Units • The spinach was grown in 8-kg pots. Each pot was transplanted with two spinach seedlings on Mar. 5, 2010 3. Blanket Fertilizer Rates—Basal • All fertilizer materials were laboratory grade reagents to avoid contamination and antagonistic interaction with Zn, Fe and/or I. • Nitrogen: 250 mg N kg^−1 or 2 g N por^−1. […] Crop Data Analysis • The fresh and dried weight of spinach leaves was determined and analyzed for N, P, K, Zn, Fe and I. [table]

SMILES: O=C([O-])CN(CCN(CC(=O)[O-])CC(=O)[O-])CC(=O)[O-].[Na+].[Na+].[Zn+2] [Zinc EDTA]
- effectiveness as Zn source in the nutrient core in increasing Zn tissue content in spinach: more effective than ZnSO4
